Source: patent US20040110687A1, “Methods and compositions for treating gastrointestinal toxicity induced by cytoablative therapy” (priority 2002, published 2004)
Read-outs that look alike come from different tables or passages of the source. Marks after values point to notes of the source that are not given here.

What was measured:
[1] = tested on: normal, non-tumor bearing mice; format: in vivo
Method: A second study was performed to determine whether RDP58 also limits 5-FU induced diarrhea. Normal, non-tumor bearing mice were treated with 100 mg/kg 5-FU daily for two consecutive days and were concurrently given 10 mg/kg RDP58 orally or water only. […] All ten animals in the control group had diarrhea compared to only three of ten RDP58 treated animals.

[2] = tested on: mice bearing CT-26 tumors; assay: CPT-11 efficacy and treatment related mortality with or without RDP58 in tumor model; format: in vivo; details: for reduction in tumor weight: CPT-11 100 mg/kg qdx3, three regimens
Method: To determine whether RDP58 altered the efficacy of CPT-11 therapy, mice bearing CT-26 tumors were treated with three regimens of CPT-11 at 100 mg/kg qdx3 and given 5.0 mg/kg RDP58 orally.

tumor bearing mice = assay: MTD vs 2xMTD CPT-11 with or without RDP58: mortality and tumor response
[3] = as above; details: mouse, in vivo
[4] = tested on: normal, non-tumor bearing mice; assay: CPT-11-induced gastrointestinal toxicity and mortality, RDP58 dose finding study
Method: In a dose finding study, normal, non-tumor bearing mice were injected intraperitoneally with 200 mg/kg CPT-11 once a day for three consecutive days and concurrently given 0, 2.5, 5.0 or 10 mg/kg RDP58 orally.

[5] = tested on: normal non-tumor bearing mice; assay: CPT-11 dose escalation (LD50) with or without oral RDP58; format: in vivo
Method: (§1) To determine whether concurrent oral RDP58 treatment can increase the maximum dose of CPT-11 without a concomitant increase in mortality, normal non-tumor bearing mice were injected qdx3 with 0, 100, 200, 300, or 400 mg/kg CPT-11 injected i.p. qdx3 on Days 0, 1 and 2. RDP58 was given orally at 10 mg/kg in the drinking water starting on Day 3. Mice were monitored for body weight loss, incidence of diarrhea and mortality until end of study on Day 12.

[6] = as above; format: in vivo, mice; details: mouse, in vivo, intraperitoneal; without RDP58, as restated in Example 7
Method: as §1

[7] = CPT-11 200 mg/kg/dose i.p. once a day for three days, RDP58 none
[8] = RDP58 10 mg/kg orally with 5-FU 100 mg/kg
[9] = RDP58 10 mg/kg/day orally with 5-FU 100 mg/kg/dose
[10] = CPT-11 100 mg/kg qdx3 with 5.0 mg/kg RDP58 orally
[11] = RDP58 2.5 mg/kg/day orally with CPT-11 200 mg/kg/dose
[12] = RDP58 5 mg/kg/day orally with CPT-11 200 mg/kg/dose
[13] = RDP58 10 mg/kg/day orally with CPT-11 200 mg/kg/dose
[14] = RDP58 orally 10 mg/kg in the drinking water

## O=c1[nH]cc(F)c(=O)[nH]1 [5-FU, 5-Fluorouracil, reference compound]
[1]; 5-FU 100 mg/kg/dose daily for two days, RDP58 none
  Toxicity (%) Mortality: 90(9/10) %
[1]; mouse, in vivo, 12 days
  survival rate: 10%

## CCc1c2c(nc3ccc(OC(=O)N4CCC(N5CCCCC5)CC4)cc13)-c1cc3c(c(=O)n1C2)COC(=O)[C@]3(O)CC [CPT-11, irinotecan, reference compound]
[2]; RDP58 untreated
  reduction in tumor weight: 61%
[2]; control group, CPT-11 100 mg/kg qdx3 without RDP58
  mortality: 40%
Tumor bearing mice; 2×MTD CPT-11 (1200 mg/kg)
  animals that survived the complete treatment regimen: 50%
Tumor bearing mice; CPT-11 at MTD 600 mg/kg
  animals died from the CPT-11: No animals in this treatment group died
[3]
  MTD at 12 days: 600 mg/kg
[4]; [7]
  Maximum weight loss: 29.4 ± 4.3
  Toxicity (%) Diarrhea: 97 (29/30)^b %
  Toxicity (%) Mortality: 73 (22/30) %
[4]; control group, CPT-11 200 mg/kg without RDP58
  mice died from CPT-11 treatment: 22 of 30
[5]; CPT-11 i.p. qdx3 alone, until Day 12
  LD50: approximately 450 mg/kg/total dose
[6]
  LD50 at 12 days: ~465 mg/kg

## Arg-nL-nL-nL-Arg-nL-nL-nL-Gly-Tyr [RDP58]
[1]; [8]
  animals that had diarrhea: three of ten
  total body weight loss: significant reduction
[1]; [9]
  Maximum weight loss: 13.9 ± 3.8b
  Toxicity (%) Diarrhea: 30(3/10) %
  Toxicity (%) Mortality: 10(1/10) %
[1]; twelve days after 5-FU administration, RDP58 10 mg/kg orally
  survival rate: 90%
[2]; with 5.0 mg/kg RDP58 orally
  reduction in tumor weight: 55%
[2]; [10]
  survival: significantly increased
  treatment related deaths: No treatment related deaths
Tumor bearing mice; 2×MTD CPT-11 + 10 mg/ml RDP58
  animals that survived the complete treatment regimen: 83%
[4]; 5.0 and 10.0 mg/kg RDP58 with CPT-11 200 mg/kg
  maximum total body weight lost compared to RDP58 untreated mice: reduction
[4]; RDP58 0, 2.5, 5.0 or 10 mg/kg orally with CPT-11 200 mg/kg
  survival twelve days after the first injection of CPT-11: dose dependent increase
[4]; [11]
  Maximum weight loss: 27.8 ± 3.7
  Toxicity (%) Diarrhea: 67 (10/15)^b %
  Toxicity (%) Mortality: 60 (9/15) %
[4]; [12]
  Maximum weight loss: 25.6 ± 4.4^a
  Toxicity (%) Diarrhea: 40 (12/30)^b %
  Toxicity (%) Mortality: 23 (7/30) %
[4]; [13]
  Maximum weight loss: 24.6 ± 1.9^a
  Toxicity (%) Diarrhea: 33 (5/15)^b %
  Toxicity (%) Mortality: 7 (1/15) %
[4]; RDP58 group with CPT-11 200 mg/kg
  mice died from CPT-11 treatment: one of fifteen
[4]; mice receiving RDP58 with CPT-11 200 mg/kg
  appearance of diarrhea: dose dependent decrease
[5]; 10 mg/kg RDP58, as restated in Example 7
  LD50 of CPT-11 with RDP58: ~720 mg/kg total dose
[5]; [14]
  LD50 of CPT-11 with administration of RDP58: approximately 725 mg/kg/total dose
  increase of CPT-11 LD50 by a factor: about 1.6 ×
